Experimental data as given in US12466816B2, “Fused cyclic compound capable of degrading protein and use thereof” (Medshine Discovery Inc., priority 2019, dated 2025).

What was measured:
Format in all cases: cell-based
U87-MG cells = assay: Drug synergism experiment with DNA damaging agents (CCK-8); details: 10 μM WX106, low concentrations of agent, 72 hours
Description: U87-MG cells were treated with WX106 and DNA damaging agents, temozolomide, cisplatin, and gemcitabine for 72 hours, respectively, and the proliferation level of cells was detected by CCK-8. Among them, the WX106 concentration was 10 μM, and the DNA damaging agent concentrations were 0.1 μM, 1 μM and 10 μM, respectively.

SNU182 = assay: Cell growth competition experiment with Poma (CCK-8); details: 1, 10 and 50 μM Poma with 10 μM WX106, 72 hours
Description: (§1) Principle: It is known that Poma is a compound that binds to CRBN, and Poma has no obvious inhibitory effect on adherent cells. If a compound depends on CRBN to inhibit cell growth, Poma's competitive binding to CRBN will definitely affect the cytotoxic effect of this compound. Cells were treated with 1, 10 and 50 μM of Poma and 10 μM of WX106 for 72 hours; cell viability was detected using the CCK-8 kit and cell survival rate was calculated [based on the formula], cell survival rate=[(As −Ab)/(Ac−Ab)]×100% (where As represents the absorbance of the experimental wells, Ac represents the absorbance of the control wells, and Ab represents the absorbance of the blank wells); finally, the effect of the competitive binding of Poma on the cytotoxicity of WX106 was calculated to determine whether the cytotoxicity of WX106 is dependent on CRBN. This step was applied to both SUN182 and Hep3B cells.
CC885 was the positive control in this experiment and is known to kill tumor cells in a CRBN-dependent manner.

Hep3B cells = assay: as above; details: 1, 10 and 50 μM Poma with 10 μM WX106, 72 hours
Description: as §1

CRBN = CRBN (Homo sapiens, UniProt Q96SW2); assay: Protein degradation competition experiment (CC885-induced GSPT1 degradation); set-up: endogenous in cells; host or cells: MOLT-4; details: MOLT-4 cells, co-treated with 10 nM CC885, 4 hours, Western blot
Description: MOLT-4 cells were co-treated with 0.1, 1 and 10 μM of WX106 and 10 nM of CC885 for 4 hours, and the protein level of GSPT1 was then detected by Western blot, with Poma (Pomalidomide, Selleck, S1567) acting as the positive control in the experiment. Cells were collected and denatured in protein loading buffer (50 mM Tris-HCL 2% SDS, 0.025% BPB, 1% β-mercaptoethanol, 10% glycerol) at 98° C. for 10 min. Proteins were separated by SDS-PAGE and transferred to a PVDF membrane (Millipore, IPVH00010), blocked with 5% skim milk (dissolved in TBST buffer), incubated with a primary antibody overnight at 4° C., and then incubated with a secondary antibody (Anti-rabbit IgG, HRP-linked Antibody, Cell Signaling, 7074S) at room temperature for 1 hour, and the bands on the membrane were detected by chemiluminescence (ECL chemiluminescence kit, Beyotime Biotechnology, P0018AM).

Wee1 = Wee1 (Homo sapiens, UniProt P30291); assay: Detection of compounds that degrade Wee1 protein (Western blot); set-up: endogenous in cells; host or cells: MOLT-4, U87-MG; details: MOLT-4 cells 10 μM 4 hours; U87-MG cells 1 μM 24 hours
Description: MOLT-4 cells were treated with 10 μM of the test compound for 4 hours and U87-MG cells were treated with 1 μM of the test compound for 24 hours, respectively. With GAPDH (Santa Cruz, sc-32233) as the internal reference protein, the protein level of Wee1 (Cell Signaling, 13084S) was detected using Western blot. Cells were collected, lysed with protein loading buffer (1M Tris-HCl, 10% SDS, 0.025% BPB), and denatured at 98° C. for 10 min before Western blot analysis. The main steps include: 1) Electrophoresis: The protein was separated by SDS-PAGE electrophoresis. During the electrophoresis, the voltage was adjusted to 80 v for about 30 min, and then the voltage was adjusted to 120 v until the bromophenol blue ran out of the gel. 2) Transfer to a membrane: the gel was stuck to a methanol-activated PVDF membrane using the method of wet transfer, and after the top and bottom layers were wrapped with filter paper, the membrane was placed into the gel holder cassette and fixed to the transfer tank, and transfer was performed at a constant current of 250 mA for 90 min; 3) Blocking: the PVDF membrane with trace protein was placed into the antibody incubation box, 5% skim milk was added to completely cover the PVDF membrane, and incubation was performed for 1 hour on a shaker at room temperature; 4) Incubation of the primary antibody: the primary antibody was prepared with 5% BSA (1:1000) and incubated overnight on a shaker at 4° C.; 5) Incubation of the secondary antibody: the membrane was washed thrice with TBST, the secondary antibody (prepared with 5% skim milk) was added (according to the species source of the primary antibody, different secondary antibodies with a dilution range of 1:3000-1:10000 were used), and incubation was performed on a shaker at room temperature for one hour; 5) Exposure: the membrane was washed thrice with TBST and the bands on the membrane were detected by chemiluminescence.

SMILES	pro-degradation effect on Wee1 (Wee1)	further results
N.N.[Cl][Pt][Cl] [Cisplatin, cisplatin]	–	proliferation of U87-MG cells, DNA damaging agent at low concentrations in combination with WX106 (U87-MG cells): significantly inhibit the proliferation of U87-MG cells
Nc1cccc2c1C(=O)N(C1CCC(=O)NC1=O)C2=O (stereo not shown) [Poma, Pomalidomide]	–	effect of Poma on the cytotoxicity caused by WX106 (SNU182): capable of competitively inhibiting the cytotoxicity caused by WX106; effect of Poma on the cytotoxicity caused by WX106 (Hep3B cells): capable of competitively inhibiting the cytotoxicity caused by WX106; effect on degradation of GSPT1 induced by CC885 (CRBN): could inhibit the pro-degradation of GSPT1 by CC885
Nc1ccn([C@@H]2O[C@H](CO)[C@@H](O)C2(F)F)c(=O)n1 [gemcitabine]	–	proliferation of U87-MG cells, DNA damaging agent at low concentrations in combination with WX106 (U87-MG cells): significantly inhibit the proliferation of U87-MG cells

Second part, led by results:

pro-degradation effect on Wee1 (Wee1)	SMILES	further results
pro-degradation effect on Wee1	O=C1CCC(c2coc3ccc(NC(=O)c4ccnc(C(F)(F)F)c4)cc23)C(=O)N1 (stereo not shown) [WX002]	–
pro-degradation effect on Wee1	Cc1ccc(C(=O)Nc2ccc3occ(C4CCC(=O)NC4=O)c3c2)cc1 (stereo not shown) [WX003]	–
pro-degradation effect on Wee1	O=C1CCC(c2coc3ccc(NC(=O)c4cccc(Cl)c4)cc23)C(=O)N1 (stereo not shown) [WX004]	–
pro-degradation effect on Wee1	O=C1CCC(c2coc3ccc(NC(=O)c4ccccc4)cc23)C(=O)N1 (stereo not shown) [WX005]	–
pro-degradation effect on Wee1	CCCC(=O)Nc1ccc2occ(C3CCC(=O)NC3=O)c2c1 (stereo not shown) [WX006]	–
